Data from PubChem BioAssay AID330 (DTP/NCI, 2004).
Where “and” joins values, the source holds several entries; their conditions need not be identical. Equal entries are not always repeated. Toxic doses and inconclusive results are not listed.

Tested on: P388 leukemia ip, CD2F1 mice, survival T/C
Test: NCI In Vivo Anticancer Drug Screen. Data for tumor model P388 Leukemia (intraperitoneal) in CD2F1 (CDF1) mice
Conditions: endpoint: median survival time, higher = longer survival
Outline: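 Mice carrying the transplanted tumor received test compound or vehicle. Survival was recorded in each group, and the value is the treated-group measurement divided by that of the vehicle-treated control group.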

[1] = dose: 100.0 mg/kg/injection, schedule: Q04DX002 (ip), vehicle: Klucel (hydroxypropylcellulose) (HPC)
[2] = dose: 200.0 mg/kg/injection, schedule: Q04DX002 (ip), vehicle: Klucel (hydroxypropylcellulose) (HPC)
[3] = dose: 50.0 mg/kg/injection, schedule: Q01DX009 (ip), vehicle: Klucel (hydroxypropylcellulose) (HPC)
[4] = dose: 100.0 mg/kg/injection, schedule: Q01DX009 (ip), vehicle: Klucel (hydroxypropylcellulose) (HPC)
[5] = dose: 200.0 mg/kg/injection, schedule: Q01DX009 (ip), vehicle: Klucel (hydroxypropylcellulose) (HPC)
[6] = dose: 60.0 mg/kg/injection, schedule: Q01DX005 (ip), vehicle: saline with Tween-80
[7] = dose: 120.0 mg/kg/injection, schedule: Q01DX005 (ip), vehicle: saline with Tween-80
[8] = dose: 240.0 mg/kg/injection, schedule: Q01DX005 (ip), vehicle: saline with Tween-80
[9] = dose: 400.0 mg/kg/injection, schedule: Q04DX002 (ip), vehicle: Klucel (hydroxypropylcellulose) (HPC)
[10] = dose: 400.0 mg/kg/injection, schedule: Q01DX001 (ip), vehicle: saline with Tween-80
[11] = dose: 100.0 mg/kg/injection, schedule: Q04DX002 (ip), vehicle: saline with Tween-80
[12] = dose: 200.0 mg/kg/injection, schedule: Q04DX002 (ip), vehicle: saline with Tween-80

SMILES: C#CCNC(=O)/C(C)=C(\C)c1ccc(F)cc1
- T/C (dose: 50.0 mg/kg/injection, schedule: Q04DX002 (ip), vehicle: Klucel (hydroxypropylcellulose) (HPC)): 101 % of control
- T/C [1]: 103 % of control
- T/C [2]: 111 % of control

SMILES: Cc1ccc(N=CN(C)C)c(Cl)c1
- T/C (dose: 12.5 mg/kg/injection, schedule: Q04DX003 (ip), vehicle: Klucel (hydroxypropylcellulose) (HPC)): 103 % of control
- T/C (dose: 25.0 mg/kg/injection, schedule: Q04DX003 (ip), vehicle: Klucel (hydroxypropylcellulose) (HPC)): 101 % of control

SMILES: O=C(NCc1ccccc1)C1C(=O)C(=O)N(Cc2ccccc2)C1=O (stereo unspecified)
- T/C [3]: 105 % of control
- T/C [4]: 100 % of control
- T/C [5]: 107 % of control

SMILES: Nc1nnc(-c2ccc(Cl)cc2)o1
- T/C [6]: 100 % of control
- T/C [7]: 110 % of control
- T/C [8]: 103 % of control

SMILES: CN(C)C(n1cc2c(c1)-c1ccc(Cl)cc1C(c1ccccc1F)=NC2)n1cc2c(c1)-c1ccc(Cl)cc1C(c1ccccc1F)=NC2
- T/C [6]: 93 % of control
- T/C [7]: 92 % of control
- T/C [8]: 91 % of control

SMILES: CCNC(=O)N(CC(=O)NC)c1ncc([N+](=O)[O-])s1
- T/C [1]: 103 % of control
- T/C [2]: 101 % of control
- T/C [9]: 108 % of control

SMILES: CN1C(=O)n2c(nc3ccccc32)C(N2CCOCC2)(N2CCOCC2)C1=O
- T/C (dose: 100.0 mg/kg/injection, schedule: Q01DX001 (ip), vehicle: saline with Tween-80): 103 % of control
- T/C (dose: 200.0 mg/kg/injection, schedule: Q01DX001 (ip), vehicle: saline with Tween-80): 96 % of control
- T/C [10]: 89 % of control

SMILES: Nc1c(Br)cc(Br)c2c1[nH]c(=O)c1ccccc12
- T/C [6]: 96 % of control
- T/C [7]: 90 % of control
- T/C [8]: 107 % of control

SMILES: Cc1ccc(NCCNCCO)c2c(=O)c3cc(O)ccc3sc12
- T/C (dose: 6.25 mg/kg/injection, schedule: Q01DX009 (ip), vehicle: saline with Tween-80): 150 % of control
- T/C (dose: 12.5 mg/kg/injection, schedule: Q01DX009 (ip), vehicle: saline with Tween-80): 156 % of control and 169 % of control
- T/C (dose: 25.0 mg/kg/injection, schedule: Q01DX009 (ip), vehicle: saline with Tween-80): 103 % of control

SMILES: Cc1nnsc1-c1n[nH]c(=S)n1N
- T/C (dose: 25.0 mg/kg/injection, schedule: Q01DX001 (ip), vehicle: Klucel (hydroxypropylcellulose) (HPC)): 106 % of control
- T/C (dose: 50.0 mg/kg/injection, schedule: Q01DX001 (ip), vehicle: Klucel (hydroxypropylcellulose) (HPC)): 107 % of control
- T/C (dose: 100.0 mg/kg/injection, schedule: Q01DX001 (ip), vehicle: Klucel (hydroxypropylcellulose) (HPC)): 101 % of control

SMILES: C1=CC2C(O1)OC2c1ccc2ccccc2c1 (stereo unspecified)
- T/C (dose: 7.5 mg/kg/injection, schedule: Q01DX005 (ip), vehicle: Klucel + Tween-80): 114 % of control
- T/C (dose: 15.0 mg/kg/injection, schedule: Q01DX005 (ip), vehicle: Klucel + Tween-80): 100 % of control and 97 % of control
- T/C (dose: 30.0 mg/kg/injection, schedule: Q01DX005 (ip), vehicle: Klucel + Tween-80): 89 % of control
- T/C (dose: 60.0 mg/kg/injection, schedule: Q01DX005 (ip), vehicle: Klucel + Tween-80): 89 % of control and 97 % of control

SMILES: CC(C)(C)c1cc(C(C)(C)C)c2ssnc1-2
- T/C [6]: 89 % of control
- T/C [7]: 91 % of control
- T/C [8]: 91 % of control

SMILES: COC(=O)Cn1/c(=N\N=C(/C)c2ccc([N+](=O)[O-])cc2)sc2ccccc21
- T/C (dose: 12.5 mg/kg/injection, schedule: Q01DX001 (ip), vehicle: saline with Tween-80): 92 % of control
- T/C (dose: 25.0 mg/kg/injection, schedule: Q01DX001 (ip), vehicle: saline with Tween-80): 89 % of control
- T/C (dose: 50.0 mg/kg/injection, schedule: Q01DX001 (ip), vehicle: saline with Tween-80): 89 % of control
- T/C [10]: 88 % of control

SMILES: O=[N+]([O-])c1ccc(C2CC3COc4ccccc4C3=N2)cc1 (stereo unspecified)
- T/C (dose: 18.75 mg/kg/injection, schedule: Q01DX001 (ip), vehicle: Klucel (hydroxypropylcellulose) (HPC)): 88 % of control
- T/C (dose: 37.5 mg/kg/injection, schedule: Q01DX001 (ip), vehicle: Klucel (hydroxypropylcellulose) (HPC)): 88 % of control
- T/C (dose: 75.0 mg/kg/injection, schedule: Q01DX001 (ip), vehicle: Klucel (hydroxypropylcellulose) (HPC)): 94 % of control

SMILES: C=C1C(=O)OC2/C=C(\COC(C)=O)CCC(OC(C)=O)C3=CC(OC3=O)C12 (stereo unspecified)
- T/C (dose: 1.87 mg/kg/injection, schedule: Q01DX009 (ip), vehicle: Klucel (hydroxypropylcellulose) (HPC)): 95 % of control
- T/C (dose: 3.75 mg/kg/injection, schedule: Q01DX009 (ip), vehicle: Klucel (hydroxypropylcellulose) (HPC)): 102 % of control
- T/C (dose: 7.5 mg/kg/injection, schedule: Q01DX009 (ip), vehicle: Klucel (hydroxypropylcellulose) (HPC)): 96 % of control
- T/C (dose: 15.0 mg/kg/injection, schedule: Q01DX009 (ip), vehicle: Klucel (hydroxypropylcellulose) (HPC)): 117 % of control

SMILES: CCNC(=O)NS(=O)(=O)c1ccc(Sc2ccc(C)cc2)nc1
- T/C [6]: 98 % of control
- T/C [7]: 101 % of control
- T/C [8]: 94 % of control

SMILES: COC(=O)C1=C(C(=O)OC)C23C(=O)c4ccc(OC)c(OC)c4C1N2CCc1cc2c(cc13)OCO2 (stereo unspecified)
- T/C (dose: 50.0 mg/kg/injection, schedule: Q04DX002 (ip), vehicle: saline with Tween-80): 94 % of control
- T/C [11]: 102 % of control
- T/C [12]: 100 % of control

SMILES: Cc1c(-c2ccccc2)nn(CC(=O)O)c(=O)c1C#N
- T/C (dose: 37.5 mg/kg/injection, schedule: Q04DX002 (ip), vehicle: alkali diluted with water): 106 % of control
- T/C (dose: 75.0 mg/kg/injection, schedule: Q04DX002 (ip), vehicle: alkali diluted with water): 104 % of control
- T/C (dose: 150.0 mg/kg/injection, schedule: Q04DX002 (ip), vehicle: alkali diluted with water): 106 % of control
- T/C (dose: 300.0 mg/kg/injection, schedule: Q04DX002 (ip), vehicle: alkali diluted with water): 103 % of control

SMILES: O=C1c2cc([N+](=O)[O-])cc3cc([N+](=O)[O-])cc(c23)C(=O)N1CCN1CCN(CCN2C(=O)c3cc([N+](=O)[O-])cc4cc([N+](=O)[O-])cc(c34)C2=O)CC1
- T/C [11]: 100 % of control
- T/C [12]: 97 % of control
- T/C (dose: 400.0 mg/kg/injection, schedule: Q04DX002 (ip), vehicle: saline with Tween-80): 94 % of control

SMILES: CS(=O)c1c(C(=O)O)cc(C(C)(C)C)cc1C(=O)O (stereo unspecified)
- T/C [1]: 105 % of control
- T/C [2]: 107 % of control
- T/C [9]: 96 % of control

SMILES: C/C(=N\NS(=O)(=O)c1ccc(C)cc1)c1cccs1
- T/C [3]: 100 % of control
- T/C [4]: 91 % of control
- T/C [5]: 92 % of control

SMILES: C#CC(C(O)c1ccccc1)N1CCOCC1 (stereo unspecified)
- T/C (dose: 100.0 mg/kg/injection, schedule: Q04DX003 (ip), vehicle: saline): 104 % of control
- T/C (dose: 200.0 mg/kg/injection, schedule: Q04DX003 (ip), vehicle: saline): 102 % of control
- T/C (dose: 400.0 mg/kg/injection, schedule: Q04DX003 (ip), vehicle: saline): 101 % of control

SMILES: CCC[As](CCC)SC1OC(COC(C)=O)C(OC(C)=O)C(OC(C)=O)C1OC(C)=O (stereo unspecified)
- T/C (dose: 50.0 mg/kg/injection, schedule: Q01DX009 (ip), vehicle: saline with Tween-80): 117 % of control and 88 % of control
- T/C (dose: 100.0 mg/kg/injection, schedule: Q01DX009 (ip), vehicle: saline with Tween-80): 107 % of control and 92 % of control
- T/C (dose: 200.0 mg/kg/injection, schedule: Q01DX009 (ip), vehicle: saline with Tween-80): 110 % of control and 124 % of control

SMILES: CCCC1(c2ccccc2)CCCC(C#N)C1=N (stereo unspecified)
- T/C (dose: 100.0 mg/kg/injection, schedule: Q04DX003 (ip), vehicle: Klucel (hydroxypropylcellulose) (HPC)): 97 % of control
- T/C (dose: 200.0 mg/kg/injection, schedule: Q04DX003 (ip), vehicle: Klucel (hydroxypropylcellulose) (HPC)): 98 % of control
- T/C (dose: 400.0 mg/kg/injection, schedule: Q04DX003 (ip), vehicle: Klucel (hydroxypropylcellulose) (HPC)): 92 % of control

SMILES: CC(C)(C)c1ccc(CN2CCN(C(c3ccccc3)c3ccc(Cl)cc3)CC2)cc1 (stereo unspecified)
- T/C (dose: 2.0 mg/kg/injection, schedule: Q01DX009 (ip), vehicle: saline with Tween-80): 89 % of control
- T/C (dose: 4.0 mg/kg/injection, schedule: Q01DX009 (ip), vehicle: saline with Tween-80): 95 % of control
- T/C (dose: 8.0 mg/kg/injection, schedule: Q01DX009 (ip), vehicle: saline with Tween-80): 89 % of control
- T/C (dose: 16.0 mg/kg/injection, schedule: Q01DX009 (ip), vehicle: saline with Tween-80): 94 % of control
- T/C (dose: 32.0 mg/kg/injection, schedule: Q01DX009 (ip), vehicle: saline with Tween-80): 94 % of control
- T/C (dose: 64.0 mg/kg/injection, schedule: Q01DX009 (ip), vehicle: saline with Tween-80): 94 % of control
